Laboratory results: ChEMBL document CHEMBL4665759, “Discovery of substituted 3H-pyrido[2,3-d]pyrimidin-4-ones as potent, biased, and orally bioavailable sst2 agonist” (Bioorg Med Chem Lett, 2020)

Tests used:
[1] = molecular target: Somatostatin receptor type 3 (Homo sapiens, UniProt P32745); experiment: Agonist activity at human SST3
[2] = Half life in Sprague-Dawley rat at 5 mg/kg, iv; assay type: ADME, organism-based; settings: in vivo
Cytochrome P450 2C9 = Cytochrome P450 2C9 (Homo sapiens, UniProt P11712); experiment: Inhibition of CYP2C9 (unknown origin); assay type: ADME
Cytochrome P450 2C9, sequence (P11712 whole entry): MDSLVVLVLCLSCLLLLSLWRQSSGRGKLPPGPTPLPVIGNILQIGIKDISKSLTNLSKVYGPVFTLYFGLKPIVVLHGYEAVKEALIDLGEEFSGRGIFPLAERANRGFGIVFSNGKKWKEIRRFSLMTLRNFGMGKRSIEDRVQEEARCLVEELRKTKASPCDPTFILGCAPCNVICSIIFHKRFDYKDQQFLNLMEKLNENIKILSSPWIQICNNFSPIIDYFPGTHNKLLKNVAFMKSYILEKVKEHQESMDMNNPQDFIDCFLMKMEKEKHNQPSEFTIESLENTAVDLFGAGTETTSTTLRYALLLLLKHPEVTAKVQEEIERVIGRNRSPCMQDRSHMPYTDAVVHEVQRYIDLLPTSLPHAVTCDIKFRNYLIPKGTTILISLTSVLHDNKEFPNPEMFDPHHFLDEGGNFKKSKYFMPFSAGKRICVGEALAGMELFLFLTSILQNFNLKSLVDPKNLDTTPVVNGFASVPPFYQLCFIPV

[3] = Oral bioavailability in Sprague-Dawley rat at 10 mg/kg; assay type: ADME, organism-based; settings: in vivo
[4] = Half life in human liver microsomes; assay type: ADME, Microsome
Cytochrome P450 2C19 = Cytochrome P450 2C19 (Homo sapiens, UniProt P33261); experiment: Inhibition of CYP2C19 (unknown origin); assay type: ADME
Cytochrome P450 2C19, sequence (P33261 whole entry): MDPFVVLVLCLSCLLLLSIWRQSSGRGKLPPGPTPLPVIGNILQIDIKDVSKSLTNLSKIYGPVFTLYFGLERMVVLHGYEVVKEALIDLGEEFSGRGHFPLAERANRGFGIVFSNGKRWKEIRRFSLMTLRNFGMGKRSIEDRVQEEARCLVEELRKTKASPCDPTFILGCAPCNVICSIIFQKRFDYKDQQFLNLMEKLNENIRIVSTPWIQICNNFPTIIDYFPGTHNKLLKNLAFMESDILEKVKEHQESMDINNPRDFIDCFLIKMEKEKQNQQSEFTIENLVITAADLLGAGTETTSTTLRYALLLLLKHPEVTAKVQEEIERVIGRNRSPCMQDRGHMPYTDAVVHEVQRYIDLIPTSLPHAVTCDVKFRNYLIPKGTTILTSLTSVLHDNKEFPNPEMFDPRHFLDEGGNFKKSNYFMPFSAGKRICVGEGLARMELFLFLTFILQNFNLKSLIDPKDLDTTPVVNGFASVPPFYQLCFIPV

[5] = Cmax in Sprague-Dawley rat at 10 mg/kg, po; assay type: ADME, organism-based; design: route oral, dose 10 mg/kg; settings: in vivo
[6] = molecular target: Somatostatin receptor type 1 (Homo sapiens, UniProt P30872); experiment: Agonist activity at human SST1
Somatostatin receptor type 1, sequence (P30872 whole entry): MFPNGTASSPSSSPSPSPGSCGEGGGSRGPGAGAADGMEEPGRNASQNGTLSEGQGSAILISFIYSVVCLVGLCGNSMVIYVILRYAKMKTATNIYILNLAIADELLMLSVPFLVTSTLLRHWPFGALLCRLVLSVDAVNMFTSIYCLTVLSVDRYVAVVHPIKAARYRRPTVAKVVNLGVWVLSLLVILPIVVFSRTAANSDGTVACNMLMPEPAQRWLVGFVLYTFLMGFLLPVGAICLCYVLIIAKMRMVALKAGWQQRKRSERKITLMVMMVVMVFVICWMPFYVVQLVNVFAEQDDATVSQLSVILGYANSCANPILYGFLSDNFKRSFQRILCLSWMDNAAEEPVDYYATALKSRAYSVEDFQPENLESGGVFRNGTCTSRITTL

[7] = Half life in rat liver microsomes; assay type: ADME, Microsome
Rattus norvegicus = experiment: Suppression of growth hormone production in GHRH-challenged sc dosed Sprague-Dawley rat plasma administered GHRH at 1 to 8 hrs post dose and measured 5 mins after each GHRH challenge by sandwich ELISA; assay type: functional, organism-based; settings: dose mg/kg 0.1-10, time hrs 1-8
[8] = AUC (0 to infinity) in Sprague-Dawley rat at 10 mg/kg, po; assay type: ADME, organism-based; design: time infinity, route oral, dose 10 mg/kg; settings: in vivo
Cytochrome P450 3A4 = Cytochrome P450 3A4 (Homo sapiens, UniProt P08684); experiment: Inhibition of CYP3A4 (unknown origin); assay type: ADME
Cytochrome P450 3A4, sequence (P08684 whole entry): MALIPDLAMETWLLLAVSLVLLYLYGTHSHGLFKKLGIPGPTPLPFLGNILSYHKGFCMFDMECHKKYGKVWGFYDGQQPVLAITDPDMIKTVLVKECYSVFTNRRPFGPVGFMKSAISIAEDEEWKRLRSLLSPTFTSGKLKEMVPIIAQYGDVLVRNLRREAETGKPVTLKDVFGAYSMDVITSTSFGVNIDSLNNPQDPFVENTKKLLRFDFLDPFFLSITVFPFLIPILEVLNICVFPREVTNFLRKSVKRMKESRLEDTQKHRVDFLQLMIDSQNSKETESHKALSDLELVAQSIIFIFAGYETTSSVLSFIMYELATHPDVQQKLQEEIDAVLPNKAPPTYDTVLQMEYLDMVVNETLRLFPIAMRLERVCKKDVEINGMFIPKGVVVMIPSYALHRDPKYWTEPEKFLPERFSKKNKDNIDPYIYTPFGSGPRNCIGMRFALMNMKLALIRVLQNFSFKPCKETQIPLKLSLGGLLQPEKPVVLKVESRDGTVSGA

[9] = Observed clearance in Sprague-Dawley rat at 5 mg/kg, iv; assay type: ADME, organism-based; settings: in vivo
[10] = molecular target: Voltage-gated inwardly rectifying potassium channel KCNH2 (Homo sapiens, UniProt Q12809); experiment: Inhibition of human ERG
Voltage-gated inwardly rectifying potassium channel KCNH2, sequence (Q12809 whole entry): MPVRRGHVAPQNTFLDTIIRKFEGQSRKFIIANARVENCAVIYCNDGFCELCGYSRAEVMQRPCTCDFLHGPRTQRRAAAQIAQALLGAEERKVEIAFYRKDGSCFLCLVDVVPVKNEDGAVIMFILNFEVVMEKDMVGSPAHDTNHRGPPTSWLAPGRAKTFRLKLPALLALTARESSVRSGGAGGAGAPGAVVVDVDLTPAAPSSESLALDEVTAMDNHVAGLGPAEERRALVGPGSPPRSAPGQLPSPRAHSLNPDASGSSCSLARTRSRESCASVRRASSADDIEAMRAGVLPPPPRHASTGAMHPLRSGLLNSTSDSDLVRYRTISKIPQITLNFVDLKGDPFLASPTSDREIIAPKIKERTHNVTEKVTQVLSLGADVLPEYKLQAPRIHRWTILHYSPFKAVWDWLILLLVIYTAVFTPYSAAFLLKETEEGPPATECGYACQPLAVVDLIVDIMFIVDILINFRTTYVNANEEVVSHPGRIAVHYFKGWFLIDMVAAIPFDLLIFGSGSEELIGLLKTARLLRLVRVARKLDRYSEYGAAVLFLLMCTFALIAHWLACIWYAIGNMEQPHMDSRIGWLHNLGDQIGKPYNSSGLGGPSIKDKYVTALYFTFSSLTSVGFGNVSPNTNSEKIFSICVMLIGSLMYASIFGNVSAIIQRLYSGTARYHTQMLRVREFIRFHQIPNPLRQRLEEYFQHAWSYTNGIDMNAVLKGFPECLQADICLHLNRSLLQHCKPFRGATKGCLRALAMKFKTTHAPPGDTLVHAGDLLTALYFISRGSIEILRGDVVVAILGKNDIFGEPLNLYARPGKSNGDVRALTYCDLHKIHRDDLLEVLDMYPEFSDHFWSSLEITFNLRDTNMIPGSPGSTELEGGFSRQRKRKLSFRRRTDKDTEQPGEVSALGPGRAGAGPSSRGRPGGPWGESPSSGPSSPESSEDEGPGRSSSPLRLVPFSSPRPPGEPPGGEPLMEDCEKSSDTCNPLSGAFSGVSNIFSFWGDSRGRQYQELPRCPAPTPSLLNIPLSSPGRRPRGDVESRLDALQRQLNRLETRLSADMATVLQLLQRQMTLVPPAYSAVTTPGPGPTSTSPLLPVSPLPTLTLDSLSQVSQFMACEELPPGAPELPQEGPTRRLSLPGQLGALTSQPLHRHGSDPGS

[11] = Volume of distribution at steady state in Sprague-Dawley rat at 5 mg/kg, iv; assay type: ADME, organism-based; settings: in vivo, read-out: Vdss
[12] = molecular target: Somatostatin receptor type 5 (Homo sapiens, UniProt P35346); experiment: Agonist activity at human SST5
Somatostatin receptor type 5, sequence (P35346 whole entry): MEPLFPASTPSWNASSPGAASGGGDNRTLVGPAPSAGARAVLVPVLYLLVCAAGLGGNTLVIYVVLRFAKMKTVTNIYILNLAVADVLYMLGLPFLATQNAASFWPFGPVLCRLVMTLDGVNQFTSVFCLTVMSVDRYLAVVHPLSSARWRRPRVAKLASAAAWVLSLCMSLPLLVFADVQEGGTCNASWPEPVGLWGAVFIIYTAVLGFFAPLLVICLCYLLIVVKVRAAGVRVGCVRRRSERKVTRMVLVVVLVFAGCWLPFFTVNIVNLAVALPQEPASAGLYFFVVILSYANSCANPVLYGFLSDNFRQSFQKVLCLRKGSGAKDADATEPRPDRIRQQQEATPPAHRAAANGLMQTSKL

Somatostatin receptor type 3, sequence (P32745 whole entry): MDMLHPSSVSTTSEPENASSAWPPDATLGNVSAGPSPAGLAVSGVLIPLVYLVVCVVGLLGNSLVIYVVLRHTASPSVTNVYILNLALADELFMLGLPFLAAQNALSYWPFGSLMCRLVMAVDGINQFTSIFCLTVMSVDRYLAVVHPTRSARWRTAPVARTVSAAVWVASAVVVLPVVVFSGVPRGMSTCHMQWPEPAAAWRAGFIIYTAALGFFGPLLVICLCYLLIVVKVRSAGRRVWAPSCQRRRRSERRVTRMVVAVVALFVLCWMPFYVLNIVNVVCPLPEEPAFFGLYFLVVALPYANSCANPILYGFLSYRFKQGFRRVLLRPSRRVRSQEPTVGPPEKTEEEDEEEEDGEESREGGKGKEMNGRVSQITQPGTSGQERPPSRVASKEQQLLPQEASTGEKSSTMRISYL

Cc1cc(Cl)cc(-c2cnc3ncn(-c4cc(O)cc(F)c4)c(=O)c3c2CN(C)C[C@@H]2CCCN2)c1
EC50 [1]: 0.00794 µM
half-life [2]: 204 min
IC50 (Cytochrome P450 2C9): > 10 µM
bioavailability [3]: 14%
half-life [4]: 35 min
IC50 (Cytochrome P450 2C19): > 10 µM
Cmax [5]: 0.043 µg/mL
EC50 [6]: 0.316 µM
half-life [7]: 23 min
Activity (Rattus norvegicus): Dose-dependent effect
AUC(0-inf) [8]: 0.329 µg·h/mL
IC50 (Cytochrome P450 3A4): > 10 µM
clearance [9]: 4.38 L/h/kg
IC50 [10]: 3.16 µM
Vd [11]: 11.9 L/kg
EC50 [12]: > 1 µM
